Measured values taken from patent US20050222127A1, “Use of Rho kinase inhibitors in the treatment of hearing loss, tinnitus and improving body balance” (Alcon, Inc., priority 2004, published 2005).

Key:
Rho kinase (ROCK II) = biological target: T1, Rho kinase (ROCK II) (Homo sapiens, UniProt O75116); experiment: IMAP fluorescence polarization Rho kinase assay (IMAP ROCK II kit); assay type: biochemical; conditions: mean ± SEM; 10 μM ATP, substrate 200 nM, 60 min at 23° C.; read-out: Rho Kinase Inhibition Constants (IC50), IMAP Fluorescence Polarization-Based Assay
T1 construct: purchased Molecular Devices, Sunnyvale, Calif
Procedure: (§1) Rho kinase activity and inhibition of activity by test compounds in vitro is carried out using a radioactive assay or a fluorescence polarization assay as described herein.
The fluorescence polarization assays are performed using a Biomek 2000 Robotic Workstation (Beckman Instruments, Palo Alto, Calif.) in a 96-well plate format. The assay is performed utilizing the IMAP ROCK II kit (Molecular Devices, Sunnyvale, Calif.) as follows. […] The substrate, enzyme, and ATP dilutions are made with the reaction buffer provided by the vendor. Test compounds are diluted in 10:10 DMSO-ethanol (vol/vol). For the actual assay, the various components are added into black, clear bottom, 96-well plates (Costar, Corning, N.Y.) in a final volume of 20 μl per well. After the enzyme reaction (60 min at 23° C.), 60 μl of the binding solution (IMAP kit provided by vendor) is added per well and incubated for an additional 30 minutes in the dark at 23° C. Fluorescence polarization of the reaction mixtures is then measured on the Analyst™ HT instrument (Molecular Devices, Sunnyvale, Calif.). The data are then analyzed using a non-linear, iterative, sigmoidal-fit computer program purchased from IDBS (Emeryville, Calif.) and as previously described (Sharif et al., ibid.) to generate the inhibition constants for the test compounds.

[1] = biological target: T2, Human recombinant Rho kinase (ROKα/ROCK-II, aa 11-552) (Homo sapiens, UniProt O75116); experiment: [γ-33P]-ATP-based Rho kinase assay; assay type: biochemical; conditions: mean ± SEM; 100 μM ATP, Long S6 substrate peptide 30 μM, 30 min at 30° C.; read-out: Rho Kinase Inhibition Constants (IC50), [γ-33P]-ATP-Based Assay
T2 construct: ROKα/ROCK-II, (aa 11-552), human active, catalog #14-451; purchased Upstate Biotechnology Co., Lake Placid, N.Y. 14-451
Procedure: as §1
The enzyme assays are performed using a Biomek 2000 Robotic Workstation (Beckman Instruments, Palo Alto, Calif.) in a 96-well format using [γ-^33P]-ATP (Perkin-Elmer Life Sciences, Boston, Mass.). Stock [γ-^33P] ATP (3000 Ci/mmol) is diluted to 1 μCi/μl with the MgCl2/ATP cocktail solution. The concentrations of MgCl2/ATP used are 15 mM and 100 μM, respectively. […] The substrate and enzyme are diluted in 20 mM MOPS buffer (pH 7.2), 25 mM β-glycerol phosphate, 5 mM EGTA, 1.0 mM sodium orthovanadate, and 1.0 mM DTT. Test compound dilutions are made in 10:10 dimethyl sulfoxide-ethanol (vol/vol). In the following order, substrate, enzyme, test compound dilution, and [γ-33P]-ATP are added to the 96-well plates for a final volume of 100 μl per well. […] The radioactivity captured on the filter mats is then determined on a beta-counter.

T2 sequence (O75116 11-552): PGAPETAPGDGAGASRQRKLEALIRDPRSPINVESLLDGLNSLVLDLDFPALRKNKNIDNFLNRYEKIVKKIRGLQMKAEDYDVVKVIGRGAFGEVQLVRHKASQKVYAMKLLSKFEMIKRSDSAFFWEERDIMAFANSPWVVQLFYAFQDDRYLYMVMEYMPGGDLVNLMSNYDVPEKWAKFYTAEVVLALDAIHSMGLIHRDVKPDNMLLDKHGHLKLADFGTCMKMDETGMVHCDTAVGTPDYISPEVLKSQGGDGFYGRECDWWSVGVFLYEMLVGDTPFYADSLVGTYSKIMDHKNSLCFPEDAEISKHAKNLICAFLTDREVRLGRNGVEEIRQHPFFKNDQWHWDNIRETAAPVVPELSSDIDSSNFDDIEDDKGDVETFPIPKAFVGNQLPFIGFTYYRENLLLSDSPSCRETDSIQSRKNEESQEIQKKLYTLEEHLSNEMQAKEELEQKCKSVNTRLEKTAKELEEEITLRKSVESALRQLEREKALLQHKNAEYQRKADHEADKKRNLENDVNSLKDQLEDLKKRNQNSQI
T1 sequence (O75116 whole entry, species assumed): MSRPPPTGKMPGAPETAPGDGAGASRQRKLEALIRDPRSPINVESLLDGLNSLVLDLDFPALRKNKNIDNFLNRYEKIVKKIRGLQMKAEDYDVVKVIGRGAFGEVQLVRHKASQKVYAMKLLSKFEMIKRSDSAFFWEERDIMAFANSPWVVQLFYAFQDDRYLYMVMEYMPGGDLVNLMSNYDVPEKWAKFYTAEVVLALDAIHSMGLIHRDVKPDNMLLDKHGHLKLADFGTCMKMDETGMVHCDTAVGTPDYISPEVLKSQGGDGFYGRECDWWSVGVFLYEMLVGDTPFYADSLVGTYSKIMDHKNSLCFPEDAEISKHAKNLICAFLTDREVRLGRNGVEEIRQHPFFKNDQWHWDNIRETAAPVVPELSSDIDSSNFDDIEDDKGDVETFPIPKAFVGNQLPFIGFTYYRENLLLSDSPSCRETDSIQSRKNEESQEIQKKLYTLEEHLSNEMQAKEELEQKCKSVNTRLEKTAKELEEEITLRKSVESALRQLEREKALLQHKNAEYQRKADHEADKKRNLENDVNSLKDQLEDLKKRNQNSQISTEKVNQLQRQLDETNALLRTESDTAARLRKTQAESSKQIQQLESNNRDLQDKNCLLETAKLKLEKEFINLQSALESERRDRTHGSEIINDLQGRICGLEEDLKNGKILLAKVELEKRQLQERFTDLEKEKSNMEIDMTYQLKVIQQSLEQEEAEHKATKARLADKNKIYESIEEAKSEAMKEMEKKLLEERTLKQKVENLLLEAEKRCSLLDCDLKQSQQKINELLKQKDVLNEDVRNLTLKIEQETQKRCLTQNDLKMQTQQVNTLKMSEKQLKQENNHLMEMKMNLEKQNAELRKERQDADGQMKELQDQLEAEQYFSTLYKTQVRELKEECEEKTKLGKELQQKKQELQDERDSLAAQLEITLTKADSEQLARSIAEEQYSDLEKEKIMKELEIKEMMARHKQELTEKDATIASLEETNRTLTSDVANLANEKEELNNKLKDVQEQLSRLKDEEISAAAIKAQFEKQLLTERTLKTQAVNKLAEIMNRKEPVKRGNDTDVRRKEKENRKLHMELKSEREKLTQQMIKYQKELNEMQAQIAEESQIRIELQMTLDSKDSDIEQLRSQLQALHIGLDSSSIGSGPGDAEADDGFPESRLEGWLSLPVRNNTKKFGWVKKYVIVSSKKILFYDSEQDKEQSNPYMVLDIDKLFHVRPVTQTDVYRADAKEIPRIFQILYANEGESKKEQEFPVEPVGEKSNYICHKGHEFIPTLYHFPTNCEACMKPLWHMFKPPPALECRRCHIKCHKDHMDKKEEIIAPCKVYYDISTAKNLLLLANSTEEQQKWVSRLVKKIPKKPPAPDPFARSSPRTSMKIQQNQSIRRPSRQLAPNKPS

Compound	IC50 (Rho kinase (ROCK II))	IC50 [1]
CC1CNCCN1S(=O)(=O)c1cccc2cnccc12 (centres unmarked) [B, reference compound]	0.913 ± 0.644 µM	2.34 ± 0.395 µM
CC1CN(S(=O)(=O)c2cccc3cnccc23)CCN1 (centres unmarked) [I, reference compound]	–	6.7 ± 0.9 µM

Second part, the compound after the results:

IC50 (Rho kinase (ROCK II))	IC50 [1]	Compound
0.108 ± 0.053 µM	0.485 ± 0.207 µM	Cc1cncc2cccc(S(=O)(=O)N3CCCN(C)CC3C)c12 (centres unmarked) [E]
2.01 ± 0.085 µM	1.51 ± 0.704 µM	Cc1cncc2cccc(S(=O)(=O)N3CCCNC(C)(C)C3)c12 [F]
0.27 ± 0.113 µM	3.46 ± 1.8 µM	Cc1cncc2cccc(S(=O)(=O)N3CCCN(C)C(C)C3)c12 (centres unmarked) [D]
2.39 ± 1.26 µM	2.63 ± 0.307 µM	Cc1cncc2cccc(S(=O)(=O)N3CCNC(C)C3)c12 (centres unmarked) [G]
